{"source": "patent EP2557075A1", "about": "“New triazene compounds for treating cancer” (Trin Therapeutics GmbH, priority 2011, dated 2013)", "key": {"[1]": {"system": "HepG2", "experiment": "Intracellular uptake of triazenes in HepG2 cells (Experiment 2)", "type": "in vitro ADME", "conditions": "HepG2, 50.000ng/ml, 10.000ng/ml O6-Benzylguanin, 2, 4 und 20 Stunden", "method": "(§1) Es wird gezeigt, dass Verbindungen nach Beispiel 1 schneller und in größerer Menge intrazellulär aufgenommen werden als die als Vergleichssubstanzen eingesetzten Verbindungen nach Präparat 2 und 5 (entsprechend Verbindungen nach Präparat 2 und Beispiel 2a jeweils der WO 2009/004060).\n(§2) Die getesteten Verbindungen wurden wie folgt gelöst: • Erfindungsgemäße Verbindung: • Beispiel 1: in 20 mg/ml DMSO\n(§3) Vergleichssubstanzen: • Präparat 2: in 50mg/ml DMSO, • Präparat 5: in 50mg/ml Wasser.\n(§4) Alle drei Substanzen wurden in einer Dosis von 50.000ng/ml auf 2 x 10^7 HepG2 und HCT-8 sowie 2 x 10^6-MDA-MB231 Zellen gegeben. Als Zellkulturmedium wurde 100% (MDA-MB231: 50%) fötales Kälberserum (FCS) verwendet. Zudem wurde bei den Versuchen mit HepG2 und HCT-8 noch 10.000ng/ml O6-Benzylguanin zugesetzt. Für den Versuch wurde die intrazelluläre Konzentration von Ausgangsprodukt und Metaboliten nach 2, 4 und 20 (HepG2), 2 und 3,5 und 20 Stunden (MDA-MB231) und 2,4, 24 und 48 Stunden (HCT-8) Inkubationszeit ermittelt. Alle drei Substanzen zeigten in Kontrollversuchen mit 100% FCS nach 40 Stunden metabolische Stabilität."}, "[2]": {"system": "MDA-MB231 Zellen", "experiment": "Intracellular uptake of triazenes in MDA-MB231 cells (Experiment 2)", "type": "in vitro ADME", "conditions": "MDA-MB231, 50.000ng/ml, 50% FCS, 2, 3,5 und 20 Stunden", "method": "as §1, §2, §3, §4"}, "[3]": {"system": "MDA-MB231", "experiment": "IC50 of triazenes in MDA-MB231 cell line (Experiment 3)", "type": "cell-based", "conditions": "Homo sapiens, MDA-MB-231; IC50 für die MDA-MB231 gemäß Experiment 3; used as incubation concentration for PBC", "description": "(§5) Die nachfolgenden Experimente 3 und 4 zeigen, dass die erfindungsgemäßen neuen Triazenverbindungen eine vergleichbare Anti-Tumorwirkung (IC50) in zahlreichen Krebszelllinien wie der HepG2 (Leber), HCT8 (Darm), DU-145 (Prostata), MCF-7 und MDA-MB-231 (Brust) und MiaPaca-2 (Bauchspeicheldrüse) bei bis zu 100fach niedrigeren Konzentrationen zeigen als vergleichbare Triazene wie DTIC, TMZ oder Substanzen wie sie in der WO 2009/004060 und der DE 1 7931 1 5 beschrieben sind.\n(§6) Verschiedene Triazene wie erfindungsgemäße Verbindungen nach Beispiel 1, DTIC, TMZ sowie Verbindungen nach Präparat 2 und 5 (entsprechend Verbindungen nach Präparat 2 und Beispiel 2a jeweils der WO 2009/004060) sowie Verbindungen nach Beispiel 33 der DE1793115 wurden in DMSO bzw. Wasser gelöst.\n(§7) Periphäre Blutzellen (PBC) werden jeweils mit der IC50 für die MDA-MB231 gemäß Experiment 3 der entsprechenden Substanzen inkubiert. Es wird gezeigt, dass die erfindungsgemäße Verbindung nach Beispiel 1 nicht mehr DNA-Schädigungen in den PBC erzeugt als eine Negativkontrolle, […]"}, "[4]": {"system": "MCF-7, MB-231, HepG2, HCT8, DU-145", "experiment": "IC50 of triazenes in various tumour cell lines (Experiment 3)", "type": "cell-based", "description": "as §5, §6"}, "[5]": {"system": "periphere Blutzellen (PBC)", "experiment": "Cell damage (apoptosis rate, CaspACE assay, flow cytometry) in peripheral blood cells (Experiment 5)", "type": "cell-based", "description": "Um die therapeutische Breite der neuen Substanzen abschätzen zu können, wurden periphere Blutzellen (PBC) und hämatologische Zellen (Nalm-6; CEM und U-937) für 24 Stunden mit unterschiedlichen Dosen verschiedener Triazenverbindungen bzw. Doxorubicin als positive Kontrolle für die hämatologischen Zelllinien inkubiert. Das Maß der Zellschädigung (Apoptoserate) wurde mittels CaspACE™ Assay (am Durchflusszytometer) bestimmt.\nVerschiedene Triazene wie erfindungsgemäße Verbindungen nach Beispiel 1, TMZ sowie Verbindungen nach Präparat 2 und 5 (entsprechend Verbindungen nach Präparat 2 und Beispiel 2a jeweils der WO 2009/004060) wurden in DMSO bzw. Wasser entsprechend den Angaben in Abbildung 22 gelöst.\nas §7"}, "[6]": {"system": "HL-60", "experiment": "Growth inhibition (IC50) in leukaemic HL-60 cells (Experiment 7)", "type": "cell-based", "conditions": "for IC50: Homo sapiens, HL-60, 24 Stunden", "description": "Hämatologische Zellen (CEM, HL-60) wurden für 24 Stunden mit unterschiedlichen Dosen verschiedener Triazenverbindungen inkubiert, um die IC50 zu bestimmen."}, "[7]": {"experiment": "Formulation trials for intravenous application (Experiment 8)", "type": "physicochemical", "method": "Um die Testergebnisse aus Experiment 7 in einem in-vivo Xenograft Modell zu bestätigen, wurden Formulierungsversuche mit Verbindungen nach Beispiel 1 sowie der Verbindung nach Beispiel 2 aus DE 1 793 1 15, als den wirksamsten Verbindungen aus Experiment 7, unternommen.\n15mg der Verbindung nach Beispiel 1 werden in 30µL DMSO ([…]) gelöst. Diese Stocklösung wird in 270µL 1 M Na2CO3 Lösung gegeben und nur leicht geschwenkt, nicht aber mittels Ultraschallbad behandelt.\nGleichermaßen sollte eine Formulierung für Verbindungen nach Beispiel 2 aus DE 1 7 93 1 15 hergestellt werden. Hier wurden 15µL der Verbindung nach Beispiel 2 vorgelegt. Bei einer Dichte von 1,08g/ml entsprach dies 16,2mg der Verbindung nach Beispiel 2. Dazu wurden 32,4µL DMSO gegeben. […] Sodann wurden 90µL einer frisch hergestellten 1 molaren Na2CO3 Lösung vorgelegt und 10µL der Lösung der Verbindung nach Beispiel 2 hinzugegeben. […] Auch mittels Ultraschallbad konnte keine Auflösung des erzeugten Niederschlags herbeiführen."}, "[8]": {"system": "MDA-MB231", "experiment": "Cell cycle analysis by flow cytometry in MDA-MB231 (Experiment 9)", "type": "cell-based", "conditions": "MDA-MB231, incubated with IC50, nach 10 bzw. 24 Stunden", "description": "(§8) Die Progression durch den Zellzyklus ist charakterisiert durch die mitotische Teilung (M-Phase) und der sich anschließenden Interphase, Die Interphase gliedert sich wiederum in die G1 -, S- und G2-Phase, In der G1-Phase beginnt die Zelle zu wachsen und es liegt ein vollständiger Chromosomensatz vor. In der S-Phase erfolgt die Replikation der DNA, wodurch an ihrem Ende der zweifache Chromosomensatz vorliegt. In der G2-Phase bereitet sich die Zelle auf die mitotische Teilung vor, an dessen Ende wieder der einfache Chromosomensatz vorhanden ist. Zusätzlich zu diesen Phasen kann eine sog. sub-G1-Phase vorliegen. Diese ist charakterisiert durch fragmentierte, apoptotische Zellen, die durch degradierte DNA charakterisiert ist. In welchem Stadium sich die Zelle befindet bzw. arretiert sein kann, lässt sich mittels Durchflusszytometrie bestimmen (Brockhoff et al. 2007; Lenz et al. 2007).\n(§9) Zellkulturen von MDA-MB231 bzw. HL-60 wurden mit der IC50 (MDA-MB231) bzw. IC90 (HL-60) der beiden Test-Substanzen für bis zu 72 Stunden inkubiert und auf die Zellzyklusentwicklung hin untersucht."}, "[9]": {"system": "HL-60", "experiment": "Cell cycle analysis by flow cytometry in HL-60 (Experiment 9)", "type": "cell-based", "description": "as §8, §9"}}, "note": "“Also recorded” adds a separate entry of the source. Read-outs that look alike come from different tables or passages of the source.", "data": [{"compound": "CN(C)N=Nc1ccc(C(=O)c2ccc(O)cc2)cc1", "note": "[Beispiel 1]", "values": [{"measurement": "intrazelluläre Konzentration vs. Vergleichssubstanzen", "setting": "[1]", "result": "deutlich schneller und in höheren Konzentrationen intrazellulär nachweisbar"}, {"measurement": "intrazelluläre Konzentration vs. Vergleichssubstanzen", "setting": "[2]", "result": "deutlich schneller und in höheren Konzentrationen intrazellulär nachweisbar"}, {"measurement": "IC50", "setting": "[3]", "result": 27.5, "unit": "µM"}, {"measurement": "antitumorale Aktivität (IC50) compared with other triazenes", "setting": "[4]", "result": "deutlich wirksamer; also recorded: höhere antitumorale Aktivität"}, {"measurement": "Zellschädigung (Apoptoserate) vs. Negativkontrolle", "setting": "[5]; PBC, 24 stündige Inkubation", "result": "nicht mehr geschädigt als durch eine Negativkontrolle"}, {"measurement": "% Zellen in Apoptose", "setting": "[5]; Versuch 1 Lymphozyten, 24 Stunden incubation at the IC50 for MDA-MB231", "result": "8,120%"}, {"measurement": "Wachstumshemmung in x-fach niedrigerer Konzentration", "setting": "[6]; CEM und HL-60, vs. Triazenverbindungen aus WO2009/004060 und Beispiel 33 aus DE 1793115", "result": "≤ 100 -fach"}, {"measurement": "IC50", "setting": "[6]; mean of Exp. 1-5, read-out: IC50 Mittelwert", "result": 16.3, "unit": "µM"}, {"measurement": "IC50", "setting": "[6]; read-out: IC50 Exp. 1", "result": 12.6, "unit": "µM"}, {"measurement": "IC50", "setting": "[6]; read-out: IC50 Exp. 2", "result": 15.2, "unit": "µM"}, {"measurement": "IC50", "setting": "[6]; read-out: IC50 Exp. 3", "result": 24.2, "unit": "µM"}, {"measurement": "IC50", "setting": "[6]; read-out: IC50 Exp. 4", "result": 16, "unit": "µM"}, {"measurement": "IC50", "setting": "[6]; read-out: IC50 Exp. 5", "result": 13.4, "unit": "µM"}, {"measurement": "Stabilität der gebrauchsfertigen Lösung", "setting": "[7]; 15mg in 30µL DMSO + 270µL 1 M Na2CO3, Raumtemperatur", "result": "unter Raumtemperatur stabil"}, {"measurement": "Löslichkeit in der Formulierung", "setting": "[7]; DMSO stock solution given into 1 M Na2CO3 Lösung", "result": "vollständig löst"}, {"measurement": "stabile und verträgliche Formulierung", "setting": "[7]; Lösungsmittel wie Cremophor, PEG400, Tween80, Poloxamer", "result": "nicht erreicht werden konnte"}, {"measurement": "Zellzyklus", "setting": "[8]", "result": "ausgeprägten G2 Arrest nach 10 bzw. 24 Stunden und massivem Zelltod (SubG1)"}, {"measurement": "Zellen in der G1 Phase", "setting": "[9]; HL-60, IC90, nach 24 Stunden", "result": "< 2", "unit": "%"}, {"measurement": "eingesetzte Zellen tot", "setting": "[9]; HL-60, IC90, nach 24 Stunden", "result": "~40", "unit": "%"}, {"measurement": "Zellzyklus", "setting": "[9]; HL-60, incubated with IC90, nach 12 bzw. 24 Stunden", "result": "ausgeprägten G2 Arrest"}]}]}
